Legend:
[1] = Pharmacokinetics of PEGylated protease inhibitor prodrugs in rats; assay type: in vivo, male Sprague-Dawley rats; design: AUCall / AUC: concentration or dose not given beside the values; conditions: prodrug in plasma; for AUCall / Cmax: mean ± SD
Protocol: Pharmacokinetic analysis of protease inhibitors described herein was conducted. To evaluate the pharmacokinetics of PEGylated protease inhibitor conjugates with releasable lipophilic attachments, test compounds were administered to male Sprague-Dawley rats.
At various times following test article administration, serial blood samples were collected from indwelling jugular vein catheters and transferred to micro-tubes containing 7.5 μL of 20% w/v K2EDTA as an anticoagulant. Following processing of the blood samples to plasma (10 minutes at 10000 rpm, Centrifuge Model: Kubota 3500), plasma concentrations of the test article or corresponding PEGylated molecule released from the test article was measured using LC-MS/MS methods. Pharmacokinetic parameters were estimated using noncompartmental methods.
Table 3 presents a summary of pharmacokinetic parameters of PEGylated protease inhibitor prodrugs, wherein Cmax is the maximum (peak) concentration, AUCall represents the area under the concentration-time curve from zero to time of last concentration value, T½ is half life, and MRTlast is the mean residence time to last observable concentration

[2] = Pharmacokinetics of released PEGylated protease inhibitor following P.O. administration of prodrugs in rats; assay type: in vivo, male Sprague-Dawley rats; design: AUCall Mean: concentration or dose not given beside the values; C24 Mean: unit not given here; conditions: rats (n = 4-5)
How it was run: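 Prodrugs given orally to male Sprague-Dawley rats, with serial blood via jugular catheter into K2EDTA. Plasma levels of test article or released PEGylated inhibitor measured by LC-MS/MS. PK parameters from noncompartmental analysis.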

[3] = mPEG3-atazanavir in plasma after PO administration of mPEG3-ATV or of the listed prodrug
[4] = mPEG6-atazanavir in plasma after PO administration of mPEG6-ATV or of the listed prodrug

| Structure (SMILES) | MRTlast [1] | AUCall [1] | Cmax [1] | AUCall Mean [2, 3] | Cmax Mean [2, 3] | MRT last Mean [2, 3] | Tmax* Median [2, 3] | t½(z) [1] | Cmin(24 hr) [1] | C24 Mean ([2]; concentration at 24 hours, mPEG3-atazanavir in plasma after PO administration of mPEG3-ATV or of the listed prodrug) | AUCall Mean [2, 4] | Cmax Mean [2, 4] | MRT last Mean [2, 4] | Tmax Median [2, 4] |
| --- | --- | --- | --- | --- | --- | --- | --- | --- | --- | --- | --- | --- | --- | --- |
| COCCOCCOCCOC(=O)NC(C(=O)NC(Cc1ccccc1)C(CN(Cc1ccc(-c2ccccn2)cc1)NC(=O)C(NC(=O)OC)C(C)(C)C)OC(=O)COCCOC(=O)C(N)CC(C)C)C(C)(C)C.Cl (centres unmarked) [mPEG3-Atazanavir-CME-Leucine HCl, mPEG3-Atazanavir-CME-Leucine] | 3.74 ± 6.09 h | 13.1 ± 17.2 ng·h/mL | 11.5 ± 12.8 ng/mL | 85.9 ng·h/mL | 4.39 ng/mL | 17.4 h | 9.00 h | – | – | – | – | – | – | – |
| CCOC(=O)OC(CN(Cc1ccc(-c2ccccn2)cc1)NC(=O)C(NC(=O)OC)C(C)(C)C)C(Cc1ccccc1)NC(=O)C(NC(=O)OCCOCCOCCOC)C(C)(C)C (centres unmarked) [mPEG3-atazanavir ethyl carbonate, mPEG3-Atazanavir Ethyl Carbonate] | 3.12 ± 0.285 h | 4960 ± 442 ng·h/mL | 1190 ± 294 ng/mL | 199 ng·h/mL | 17.9 ng/mL | 15.5 h | 1.00 h | 6.56 ± 5.13 h | 2.42 ± 1.20 ng/mL | 1.42 | – | – | – | – |
| CCOC(C)OC(CN(Cc1ccc(-c2ccccn2)cc1)NC(=O)C(NC(=O)OC)C(C)(C)C)C(Cc1ccccc1)NC(=O)C(NC(=O)OCCOCCOCCOCCOCCOCCOC)C(C)(C)C (mixture of isomers) [1-ethoxyethoxy-mPEG6-Atazanivir, ethoxy ethoxy mPEG6-atazanavir] | 2.17 ± 0.340 h | 2200 ± 2000 ng·h/mL | 630 ± 550 ng/mL | – | – | – | – | 2.45 ± 0.630 h | 0.354 ± 0.410 ng/mL | – | 137 ng·h/mL | 28.8 ng/mL | 4.33 h | 1.50 h |
| COCCOCCOCCOCCOCCOCCOC(=O)NC(C(=O)NC(Cc1ccccc1)C(CN(Cc1ccc(-c2ccccn2)cc1)NC(=O)C(NC(=O)OC)C(C)(C)C)OC(=O)C(N)CC(C)C)C(C)(C)C.Cl [mPEG6-Atazanavir-L-Leucine] | 1.72 ± 0.237 h | 107 ± 62.4 ng·h/mL | 55.5 ± 41.6 ng/mL | – | – | – | – | 2.02 ± 1.07 h | – | – | 148 ng·h/mL | 9.49 ng/mL | 10.2 h | 0.500 h |
| COCCOCCOCCOCCOCCOCCOC(=O)NC(C(=O)NC(Cc1ccccc1)C(CN(Cc1ccc(-c2ccccn2)cc1)NC(=O)C(NC(=O)OC)C(C)(C)C)OC(=O)COCCOC(=O)C(N)Cc1ccccc1)C(C)(C)C.Cl (centres unmarked) [mPEG6-Atazanavir-CME-phenylalanine HCl] | 0.948 ± 0.0741 h | 6.41 ± 9.53 ng·h/mL | 8.21 ± 12.1 ng/mL | – | – | – | – | – | – | – | 351 ng·h/mL | 12.5 ng/mL | 22.1 h | 1.00 h |
| CCOC(CC)OC(CN(Cc1ccc(-c2ccccn2)cc1)NC(=O)C(NC(=O)OC)C(C)(C)C)C(Cc1ccccc1)NC(=O)C(NC(=O)OCCOCCOCCOC)C(C)(C)C (mixture of isomers) [1-ethoxypropoxy-mPEG3-Atazanivir, atazanavir-1-ethoxypropoxy-mPEG3] | 2.29 ± 0.280 h | 8480 ± 1700 ng·h/mL | 2060 ± 260 ng/mL | 849 ng·h/mL | 153 ng/mL | 3.83 h | 1.00 h | 1.39 ± 0.210 h | BLQ | – | – | – | – | – |
